Legend:
Assay in all cases: Surface plasmon resonance, heparin immobilized on chip
Assay type in all cases: binding
Conditions in all cases: SPR
FGFR4 = molecular target: T1, FGFR4 (Homo sapiens, UniProt P22455)
T1 construct: Fc-FGFR4 protein (human ectodomain) was immobilized; purchased R&D Systems 685FR050
Protocol: (§1) For the direct quantitative analysis of label-free molecular interactions in real time, surface plasmon resonance studies were conducted using BIAcore T200 and T200 evaluation software (28975001, Cytiva). Sensor SA (BR100398) and CMS chips (BR100399) were from Cytiva. For the preparation of heparin chips, heparin (2 mg) and amine-PEG3-Biotin (2 mg, 21347, Pierce) were dissolved in 200 μl of H2O and 10 mg of NaCNBH3 was added. The reaction mixture was heated at 70° C. for 24 hours; an additional 10 mg of NaCNBH3 was added; and the reaction was heated at 70° C. for another 24 hours. After cooling to room temperature, the mixture was desalted with the spin column (3000 MWCO). Biotinylated heparin was collected, freeze dried, and used for chip preparation. Biotinylated heparin was immobilized to streptavidin chips according to the manufacturer's protocol. In brief, 20 μl of biotinylated heparin solution (0.1 mg/ml) in HBS-P running buffer (0.01 M N-2-hydroxyethylpiperazine-N′-2-ethanesulfonic acid, 0.15 M NaCl, 0.005% surfactant P20 [pH7.4]; BR100368, Cytiva) was injected over flow cell 2 of the streptavidin chip at a flow rate of 10 μl/min. The successful immobilization of heparin was confirmed by the observation of an approximately 200-resonance unit increase in the sensor chip. The control flow cell (flow cell 1) was prepared by 1-minute injection with saturated biotin. For the preparation of FGFR4 chips, Fc-FGFR4 protein (human ectodomain) was immobilized on research grade CMS chips according to the standard amine coupling protocol. Briefly, carboxymethyl groups on the CMS chip surface were first activated using an injection pulse of […] of an equimolar mix of N-ethyl-N-(dimethylaminopropyl) carbodiimide and N-hydroxysuccinimide (final concentration 0.05 M, mixed immediately before injection). After activation, FGFR4 was diluted to […] in 100 mM sodium acetate (pH 5.5) buffer and injected over the activated biosensor surface. Excess unreacted sites on the sensor surface were deactivated with a 35 μl injection of 1 M ethanolamine. A reference flow cell was prepared using an injection pulse of […] of an equimolar mix of N-ethyl-N-(dimethylaminopropyl) carbodiimide and N-hydroxysuccinimide (final concentration 0.05 M, mixed immediately before injection) followed by a 35 μl injection of 1 M ethanolamine. For the measurement of interactions between FGF23 (human protein), FGFR4 (human ectodomain protein), klotho (human ectodomain, self-made; see above), and heparin, samples were diluted in HBS-P buffer. Different dilutions of protein were injected at a flow rate of 30 μl/min with HBS-P buffer as running buffer. At the end of the sample injection, HBS-P buffer was flowed over the sensor surface to facilitate dissociation. After a 3-minute dissociation time, the sensor surface was regenerated by injecting with 30 μl of 2 M NaCl to get a fully regenerated surface. The response was monitored as a function of time (sensorgram) at 25° C.

klotho = molecular target: T2, klotho (Homo sapiens, UniProt Q9UEF7)
T2 construct: The sKL recombinant protein produced is mouse aa 35-982 and human aa 34-981; made in house; host or cells: Expi293 (HEK293) cells, stably transfected
T2 sequence (Q9UEF7 34-981): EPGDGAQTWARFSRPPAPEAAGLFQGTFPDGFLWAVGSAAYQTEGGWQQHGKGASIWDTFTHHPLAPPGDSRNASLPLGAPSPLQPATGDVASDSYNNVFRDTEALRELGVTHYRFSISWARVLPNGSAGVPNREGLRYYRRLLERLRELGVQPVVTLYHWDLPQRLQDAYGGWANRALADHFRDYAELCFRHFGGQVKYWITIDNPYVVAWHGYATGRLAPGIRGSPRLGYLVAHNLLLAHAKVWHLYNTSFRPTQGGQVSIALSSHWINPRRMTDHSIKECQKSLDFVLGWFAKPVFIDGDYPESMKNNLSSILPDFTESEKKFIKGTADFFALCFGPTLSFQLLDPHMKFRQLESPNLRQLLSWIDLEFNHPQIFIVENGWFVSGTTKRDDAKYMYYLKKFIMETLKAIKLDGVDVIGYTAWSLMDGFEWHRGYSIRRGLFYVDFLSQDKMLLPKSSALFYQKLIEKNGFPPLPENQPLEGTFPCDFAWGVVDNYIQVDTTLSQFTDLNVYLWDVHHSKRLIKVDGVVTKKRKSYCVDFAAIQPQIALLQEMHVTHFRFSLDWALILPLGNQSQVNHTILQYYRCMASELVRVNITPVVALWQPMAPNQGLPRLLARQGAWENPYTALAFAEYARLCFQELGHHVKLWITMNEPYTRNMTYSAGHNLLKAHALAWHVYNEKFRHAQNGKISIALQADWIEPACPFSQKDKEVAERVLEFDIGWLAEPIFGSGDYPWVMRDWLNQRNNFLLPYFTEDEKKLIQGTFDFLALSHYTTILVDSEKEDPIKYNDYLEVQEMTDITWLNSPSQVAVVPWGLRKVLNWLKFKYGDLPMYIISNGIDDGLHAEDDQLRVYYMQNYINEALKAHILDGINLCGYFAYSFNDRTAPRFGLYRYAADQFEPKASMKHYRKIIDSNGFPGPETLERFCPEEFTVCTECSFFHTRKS
Protocol: as §1

FGF23 = molecular target: T3, FGF23 (Homo sapiens, UniProt Q9GZV9, R179Q)
T3 construct: purchased R&D Systems 2604FG025/CF
T3 sequence (Q9GZV9 25-251 R179Q): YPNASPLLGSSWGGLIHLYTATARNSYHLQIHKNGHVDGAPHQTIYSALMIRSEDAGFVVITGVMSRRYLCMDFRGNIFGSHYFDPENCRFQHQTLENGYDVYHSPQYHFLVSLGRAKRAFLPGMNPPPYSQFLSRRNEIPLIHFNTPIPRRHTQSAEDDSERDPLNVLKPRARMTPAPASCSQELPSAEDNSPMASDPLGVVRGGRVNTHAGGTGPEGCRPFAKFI
Protocol: as §1

T1 sequence (P22455 22-369 limits assumed): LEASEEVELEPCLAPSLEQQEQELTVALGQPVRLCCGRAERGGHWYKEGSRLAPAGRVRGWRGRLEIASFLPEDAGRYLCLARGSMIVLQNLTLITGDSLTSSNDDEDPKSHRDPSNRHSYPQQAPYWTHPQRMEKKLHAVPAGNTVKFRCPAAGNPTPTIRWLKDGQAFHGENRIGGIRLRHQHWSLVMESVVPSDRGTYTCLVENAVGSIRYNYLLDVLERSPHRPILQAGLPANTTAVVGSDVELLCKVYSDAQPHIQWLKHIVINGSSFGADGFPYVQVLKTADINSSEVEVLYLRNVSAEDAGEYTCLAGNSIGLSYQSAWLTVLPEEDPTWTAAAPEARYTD

heparin [reference compound] was tested, and the ka (FGFR4; 25° C.) was 1.2 × 10^6 1/MS, the Kd (FGFR4; read-out: dissociation constant KD) was 2.8 nM and the Kd (klotho) was 15 nM. The ka (klotho; 25° C.) was 8.0 × 10^4 1/MS, the kd (klotho; 25° C.) was 1.1 × 10^−3 1/S and the Kd (FGF23) was 7.6 nM. For the same substance, the ka (FGF23; 25° C.) was 4.8 × 10^5 1/MS and the kd (FGF23; 25° C.) was 3.6 × 10^−3 1/S.
